Measured values taken from ChEMBL document CHEMBL3232948 (J Med Chem, 2014).
Calls of active or inactive are those of the source. The rule behind the calls is not given here.

What was measured:
Neuraminidase [1] = molecular target: T1, Neuraminidase (Influenza A virus, UniProt B4URF0); set-up: species or system Influenza A virus (A/California/04/2009(H1N1))
Neuraminidase [2] = molecular target: T1, Neuraminidase; set-up: species or system Influenza A virus (A/Anhui/1/2005(H5N1))
[3] = molecular target: Neuraminidase (Influenza A virus) (UniProt B4URF0); assay: Inhibition of Influenza A virus (A/California/04/2009(H1N1)) wild-type neuraminidase using MU-NANA as substrate at 1000 nM after 1 hr
Neuraminidase [4] = molecular target: T1, Neuraminidase; assay: Inhibition of Influenza A virus SN33 H1N1 neuraminidase using MU-NANA as substrate after 1 hr by spectrofluorometric analysis

T1 sequence (B4URF0 whole entry): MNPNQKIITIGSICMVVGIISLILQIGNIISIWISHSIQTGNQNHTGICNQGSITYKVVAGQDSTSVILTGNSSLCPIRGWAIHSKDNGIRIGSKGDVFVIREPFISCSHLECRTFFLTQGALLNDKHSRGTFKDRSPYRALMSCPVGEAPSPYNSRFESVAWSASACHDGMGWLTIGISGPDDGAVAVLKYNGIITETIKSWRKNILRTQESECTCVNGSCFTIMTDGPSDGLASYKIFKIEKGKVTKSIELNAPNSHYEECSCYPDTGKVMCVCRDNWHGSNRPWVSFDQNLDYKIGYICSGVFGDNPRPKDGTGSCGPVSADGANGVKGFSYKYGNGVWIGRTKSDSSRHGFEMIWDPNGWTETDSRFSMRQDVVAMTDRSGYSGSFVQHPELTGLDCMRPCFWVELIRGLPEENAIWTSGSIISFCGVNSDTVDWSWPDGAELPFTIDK
Neuraminidase (Influenza A virus), sequence (B4URF0 as listed by the source): as the sequence (B4URF0 whole entry) above

| SMILES | inhibition [3] | also measured |
| --- | --- | --- |
| CCC(CC)O[C@@H]1C=C(C(=O)O)C[C@H](N/C(N)=N/O)[C@H]1NC(C)=O | – | IC50 (Neuraminidase [1]): 3.7 nM; IC50 (Neuraminidase [2]): 33 nM |
| C=CC/N=C(\N)N[C@H]1CC(C(=O)O)=C[C@@H](OC(CC)CC)[C@@H]1NC(C)=O | inactive | – |
| CCC(CC)O[C@@H]1C=C(C(=O)O)C[C@H](N/C(N)=N/CC(F)(F)F)[C@H]1NC(C)=O | inactive | – |
| CC/N=C(\N)N[C@H]1CC(C(=O)O)=C[C@@H](OC(CC)CC)[C@@H]1NC(C)=O | inactive | – |
| CCC(CC)O[C@@H]1C=C(C(=O)O)C[C@H](N/C(N)=N/C2CC2)[C@H]1NC(C)=O | inactive | – |
| CCC(CC)O[C@@H]1C=C(C(=O)O)C[C@H](N/C(N)=N/C)[C@H]1NC(C)=O | – | IC50 (Neuraminidase [1]): 1.73 nM; IC50 (Neuraminidase [2]): 3.6 nM |
| CCC(CC)O[C@@H]1C=C(C(=O)O)C[C@H](N/C(N)=N/C(C)C)[C@H]1NC(C)=O | inactive | – |
| CC(=O)N[C@H]1C([C@H](O)[C@H](O)CO)OC(C(=O)O)=C[C@@H]1NC(=N)NC(=O)CSc1ccc2ccccc2c1 (stereo partly specified) | – | IC50 (Neuraminidase [4]): 20 nM |
| CCC/N=C(\N)N[C@H]1CC(C(=O)O)=C[C@@H](OC(CC)CC)[C@@H]1NC(C)=O | inactive | – |
